Key:
[1] = tested on: ventricular tachycardia and ventricular fibrillation; details: cited from earlier work
[2] = Study of compositions of compound A and its salt under moisture and heat; type: physicochemical; details: condition of moisture and heat
From the text: Accordingly, the present application provides an anti-arrhythmic pharmaceutical composition with high stability and rapid dissolution, and a preparation method thereof.

stability of the drug in a pharmaceutical composition [2]: decomposed
SMILES: COc1cc2c(cc1OCc1ccccc1)C(Cc1cccc(NS(C)(=O)=O)c1)NCC2 (stereo not drawn) [compound A, 1-(3-methanesulfonamidobenzyl)-6-methoxy, 7-benzyloxy-1,2,3,4-tetrahydroisoquinoline]
effect on ventricular tachycardia and ventricular fibrillation [1]: effective | action potential duration ([1]; class III anti-arrhythmic drug): can prolong
